Test results as given in ChEMBL document CHEMBL3621124, “Synthesis, cytotoxicity and inhibition of NO production of ivangustin enantiomer analogues” (Eur J Med Chem, 2015).

What was measured:
[1] = tested on: HCT-116; assay: Cytotoxicity against human HCT116 cells assessed as growth inhibition incubated for 72 hrs by MTT assay; assay type: functional, cell-based; details: HCT-116, 72 h
[2] = tested on: SMMC-7721; assay: Cytotoxicity against human SMMC7721 cells assessed as growth inhibition incubated for 72 hrs by MTT assay; assay type: functional, cell-based; details: SMMC-7721, 72 h
[3] = tested on: HL-60; assay: Cytotoxicity against human HL60 cells assessed as growth inhibition incubated for 72 hrs by CCK8 assay; assay type: functional, cell-based; details: HL-60, 72 h
[4] = tested on: A549; assay: Cytotoxicity against human A549 cells assessed as growth inhibition incubated for 72 hrs by MTT assay; assay type: functional, cell-based; details: A549, 72 h
[5] = tested on: RAW264.7; assay: Anti-inflammatory activity against LPS-induced mouse RAW264.7 cells assessed as inhibition of nitric oxide production incubated for 20 mins before LPS induction by Griess method; assay type: functional, cell-based
[6] = tested on: RAW264.7; assay: Cytotoxicity against LPS-induced mouse RAW264.7 cells incubated for 18 hrs by MTT assay; assay type: cell-based; details: RAW264.7, 18 h
[7] = Cytotoxicity against human QGY7701 cells assessed as growth inhibition incubated for 72 hrs by MTT assay; assay type: functional, cell-based; details: QGY7701, 72 h
[8] = tested on: MCF7; assay: Cytotoxicity against human MCF7 cells assessed as growth inhibition incubated for 72 hrs by MTT assay; assay type: functional, cell-based; details: MCF7, 72 h

IC50 [5] [µM] | Compound | IC50 [1] [µM] | IC50 [2] [µM] | IC50 [3] [µM] | IC50 [4] [µM] | IC50 [6] [µM] | IC50 [7] [µM] | IC50 [8] [µM]
6.12 | C=C(C)CC[C@H](O)[C@@]1(C)C[C@@H]2OC(=O)C(=C)[C@@H]2CC1=O | 19.2 | 53.1 | 14.8 | 17.4 | 26.6 | 8.7 | 18.9
4.63 | C=C(C)CC[C@H](OC(C)=O)[C@@]1(C)C[C@@H]2OC(=O)C(=C)[C@@H]2CC1=O | 8.53 | 24.8 | 7.31 | 11 | 14.4 | 4.88 | 12
6.99 | C=C1C(=O)O[C@H]2C[C@](C)(C(=O)CC(=O)CC)C(=O)C[C@@H]12 | 21 | 48.6 | 16.4 | 21.9 | 47.2 | 13.7 | 27.2
5.82 | C=C1C(=O)O[C@H]2C[C@@H](C)C(=O)C[C@@H]12 | 18.3 | 42.6 | 12.6 | 14.9 | 30.6 | 8.58 | 15.7
4.72 | C=C1C(=O)O[C@H]2C[C@](C)(/C=C/C(=O)CC)C(=O)C[C@@H]12 | 5.8 | 25.4 | 1.02 | 10.5 | 9.94 | 6.16 | 9.03

Second part, the molecule before the results:

Compound | IC50 [5] [µM] | IC50 [1] [µM] | IC50 [2] [µM] | IC50 [3] [µM] | IC50 [4] [µM] | IC50 [6] [µM] | IC50 [7] [µM] | IC50 [8] [µM]
COc1cccc2c1C(=O)c1c(O)c3c(c(O)c1C2=O)C[C@@](O)(C(=O)CO)C[C@@H]3O[C@H]1C[C@H](N)[C@H](O)[C@H](C)O1 [DOXORUBICIN] | – | 0.18 | 0.57 | – | – | – | – | –
N=C(N)NN [PIMAGEDINE] | 11.9 | – | – | – | – | – | – | –
C=C1C(=O)O[C@H]2C[C@@]3(C)C(=O)[C@@H]([C@@H]12)[C@](O)(CC)C[C@@H]3OCOC | 6.7 | 14.5 | 31.7 | 9.37 | 17 | 20.1 | 7.75 | 16.4
C=C1C(=O)O[C@H]2C[C@]3(C)C(=O)C=C(CC)OC3=C[C@@H]12 | 3.44 | 9.37 | 19.6 | 5.06 | 9.58 | 10.3 | 3.55 | 7.86
C=C1C(=O)O[C@H]2C[C@]3(C)C(=O)C=C(CC)[C@@H](C3=O)[C@@H]12 | 4.26 | 9.94 | 27.2 | 3.8 | 9.65 | 12.2 | 5.55 | 11.6
